Consider one compound from PMC5264272 (EBioMedicine, 2016).

For one experiment, the system named is murine Treg cells. Description: Treg suppression assay with Tregs pre-treated in vitro. The format is cell-based. Particulars: 10 μM, 2 h pre-treatment of Tregs, washing, 3-day suppression assay.
Experiment [1] has as its system human multiple myeloma cells. The settings on record: immunodeficient mice; ref Chauhan et al., 2012; cited from earlier work.

As for `CC(=O)c1cc([N+](=O)[O-])c(Sc2cccc(Cl)c2Cl)s1` [P5091], the “effect on murine Treg function in vitro” value in the experiment with murine Treg cells is listed as “almost completely abrogated Treg function”. Moreover, the “growth of human multiple myeloma cells as xenografts” value in experiment [1] is “direct effects on the growth”.
